Legend:
[1] = biological target: T1, yeast cytosine deaminase (yCD) (Saccharomyces cerevisiae, UniProt Q12178); assay: fluorometric titration; assay type: binding
T1 sequence (Q12178 6-158): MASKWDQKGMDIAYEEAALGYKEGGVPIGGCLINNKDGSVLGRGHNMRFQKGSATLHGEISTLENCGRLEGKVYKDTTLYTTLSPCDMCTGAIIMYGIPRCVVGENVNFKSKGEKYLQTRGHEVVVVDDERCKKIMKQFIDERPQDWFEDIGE

[2] = biological target: T2, yeast cytosine deaminase (yCD) (Saccharomyces cerevisiae, UniProt Q12178, E64D); assay: radiometric 5FC deamination inhibition assay; assay type: biochemical
T2 sequence (Q12178 6-158 E64D): T1 sequence (Q12178 6-158)

Oc1ncc(F)cn1 [5FPy, 5-fluoro-1H-pyrimidin-2-one]
Kd [1]: 0.65 ± 0.08 µM
Ki [2]: 1060 ± 60 µM

From paper PMC3272785 (2011)
